Experimental data from the supplement of paper PMC11061612.

What was measured:
[1] = compound: C=CCn1c(=O)c2cnc(Nc3ccc(N4CCN(C)CC4)cc3)nc2n1-c1cccc(C(C)(C)O)n1 [AZD1775]; details: max 3 µM
How it was run: (§1)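 In 1536-well plates, cancer cell lines in 7.5 μl DMEM/F12 or RPMI with 10% FBS spent 24 hours at 37°C and 5% CO2 and were then dosed for 72 hours with final DMSO typically 0.2%. Viability was read by CellTiter-Glo 2.0 luminescence and scaled between blank-well and DMSO-well means. The single-agent IC50 was fitted from dose responses using a logistic curve in a non-linear mixed effects model, and that logistic curve had two parameters.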

[2] = compound: CS(=O)(=O)CCNCc1ccc(-c2ccc3ncnc(Nc4ccc(OCc5cccc(F)c5)c(Cl)c4)c3c2)o1 [Lapatinib]; details: max 10 µM
How it was run: as §1

[3] = compound: C1CN(CCC1(C(=O)N[C@@H](CCO)C2=CC=C(C=C2)Cl)N)C3=NC=NC4=C3C=CN4 [Capivasertib]; details: max 10 µM
How it was run: as §1

[4] = compound: COc1cc(Nc2ncc3c(n2)-c2ccc(Cl)cc2C(c2c(F)cccc2OC)=NC3)ccc1C(=O)O [Alisertib]; details: max 10 µM
How it was run: as §1

[5] = compound: C[C@@H]1COCCN1C2=NC(=NC(=C2)C3(CC3)[S@](=N)(=O)C)C4=C5C=CNC5=NC=C4 [AZD6738]; details: max 10 µM
How it was run: as §1

[6] = compound: NC1(c2ccc(-c3nc4ccn5c(=O)[nH]nc5c4cc3-c3ccccc3)cc2)CCC1 [MK-2206]; details: max 10 µM
How it was run: as §1

[7] = compound: CC(=O)c1c(C)c2cnc(Nc3ccc(N4CCNCC4)cn3)nc2n(C2CCCC2)c1=O [Palbociclib]; details: max 10 µM
How it was run: as §1

[8] = compound: CCc1c2c(nc3ccc(O)cc13)-c1cc3c(c(=O)n1C2)COC(=O)[C@]3(O)CC [SN-38]; details: max 0.3 µM
How it was run: as §1

[9] = compound: CCN(CCO)CCCOc1ccc2c(Nc3cc(CC(=O)Nc4cccc(F)c4)[nH]n3)ncnc2c1 [AZD2811]; details: max 1 µM
How it was run: as §1

[10] = compound: CC1=C(C(=CC=C1)Cl)NC(=O)C2=CN=C(S2)NC3=CC(=NC(=N3)C)N4CCN(CC4)CCO [Dasatinib]; details: max 2 µM
How it was run: as §1

[11] = compound: COc1nnc2ccc(N3CCC(c4ccc(OCCN5CCN(C)C(=O)[C@H]5C)cc4)CC3)nn12 [AZD5153]; details: max 1 µM
How it was run: as §1

[12] = compound: C[C@@H](Oc1cc(-c2cnn(C3CCNCC3)c2)cnc1N)c1c(Cl)ccc(F)c1Cl [Crizotinib]; details: max 10 µM
How it was run: as §1

[13] = compound: CN(C)CCCOc1ccc(-c2ccc3ncc4c(c3c2)n(C2CCOCC2)c(=O)n4C)cn1 [AZD0156]; details: max 3 µM
How it was run: as §1

[14] = compound: CC1=CN2[C@@H](C1)C=NC3=CC(=C(C=C3C2=O)OC)OCCCCCOC4=C(C=C5C(=C4)N=C[C@@H]6CC(=CN6C5=O)C)OC [SG3199]; details: max 0.001 µM
How it was run: as §1

[15] = compound: COc1cc2ncnc(Nc3ccc(F)c(Cl)c3)c2cc1OCCCN1CCOCC1 [Gefitinib]; details: max 10 µM
How it was run: as §1

[16] = compound: Cc1nc(-c2cn3c(n2)-c2ccc(-c4cnn(C(C)(C)C(N)=O)c4)cc2OCC3)n(C(C)C)n1 [Taselisib]; details: max 10 µM
How it was run: as §1

[17] = compound: Cn1cnc2c(F)c(Nc3ccc(Br)cc3Cl)c(C(=O)NOCCO)cc21 [Selumetinib]; details: max 10 µM
How it was run: as §1

[18] = compound: C[C@@H](Nc1cc(F)cc(F)c1)c1cc(C(=O)N(C)C)cc2c(=O)cc(N3CCOCC3)oc12 [AZD8186]; details: max 3 µM
How it was run: as §1

[19] = compound: COc1cccc(OCCCN)c1-c1cc(Nc2cnc(C#N)cn2)n[nH]1 [Prexasertib]; details: max 1 µM
How it was run: as §1

[20] = compound: C[C@@H](c1ccc2nccn2c1)n1nnc2ncc(-c3cnn(C)c3)nc21 [Savolitinib]; details: max 1 µM
How it was run: as §1

[21] = compound: CC(C)n1c(=O)n(C)c2cnc3cc(F)c(-c4ccc(OCCCN5CCCCC5)nc4)cc3c21 [AZD1390]; details: max 0.3 µM
How it was run: as §1

[22] = compound: Cc1cc2ncnn2cc1Nc1ncc2c(n1)n(C1CCOCC1)c(=O)n2C [AZD7648]; details: max 10 µM
How it was run: as §1

[23] = compound: Cc1c2c(nn1C)CSCc1cc(n(C)n1)CSc1cc(c3ccccc3c1)OCCCc1c(C(=O)O)n(C)c3c-2c(Cl)ccc13 [AZD5991]; details: max 1 µM
How it was run: as §1

[24] = compound: O=C(c1cc(Cc2n[nH]c(=O)c3ccccc23)ccc1F)N1CCN(C(=O)C2CC2)CC1 [Olaparib]; details: max 10 µM
How it was run: as §1

[25] = compound: CC1(C)CCC(CN2CCN(c3ccc(C(=O)NS(=O)(=O)c4ccc(NCC5CCOCC5)c([N+](=O)[O-])c4)c(Oc4cnc5[nH]ccc5c4)c3)CC2)=C(c2ccc(Cl)cc2)C1 [Venetoclax]; details: max 1 µM
How it was run: as §1

[26] = compound: COc1cccc2c1C(=O)c1c(O)c3c(c(O)c1C2=O)C[C@@](O)(C(=O)CO)C[C@@H]3O[C@H]1C[C@H](N)[C@H](O)[C@H](C)O1 [Doxorubicin]; details: max 1 µM
How it was run: as §1

[27] = compound: CC(=O)Nc1cccc(-n2c(=O)n(C3CC3)c(=O)c3c(Nc4ccc(I)cc4F)n(C)c(=O)c(C)c32)c1 [Trametinib]; details: max 1 µM
How it was run: as §1

[28] = compound: CN(CC[C@H](CSC1=CC=CC=C1)NC2=C(C=C(C=C2)S(=O)(=O)NC(=O)C3=CC=C(C=C3)N4CCC(CC4)[C@H](C5=CC=CC=C5C6=CC=C(C=C6)Cl)O)S(=O)(=O)C(F)(F)F)CCO [AZD4320]; details: max 1 µM
How it was run: as §1

Cell Line	IC50, cell viability 72 h [1] [nM]	IC50, cell viability 72 h [2] [nM]	IC50, cell viability 72 h [3] [nM]	IC50, cell viability 72 h [4] [nM]	IC50, cell viability 72 h [5] [nM]	IC50, cell viability 72 h [6] [nM]	IC50, cell viability 72 h [7] [nM]	IC50, cell viability 72 h [8] [nM]	IC50, cell viability 72 h [9] [nM]	IC50, cell viability 72 h [10] [nM]	IC50, cell viability 72 h [11] [nM]	IC50, cell viability 72 h [12] [nM]	IC50, cell viability 72 h [13] [nM]	IC50, cell viability 72 h [14] [nM]	IC50, cell viability 72 h [15] [nM]	IC50, cell viability 72 h [16] [nM]	IC50, cell viability 72 h [17] [nM]	IC50, cell viability 72 h [18] [nM]	IC50, cell viability 72 h [19] [nM]	IC50, cell viability 72 h [20] [nM]	IC50, cell viability 72 h [21] [nM]	IC50, cell viability 72 h [22] [nM]	IC50, cell viability 72 h [23] [nM]	IC50, cell viability 72 h [24] [nM]	IC50, cell viability 72 h [25] [nM]	IC50, cell viability 72 h [26] [nM]	IC50, cell viability 72 h [27] [nM]	IC50, cell viability 72 h [28] [nM]
HGC-27 (Gastric Carcinoma)	2240	4940	346	164	2840	501	3210	14.6	94.1	349	54.8	3250	> 3000	> 1	> 10000	61.1	> 10000	2380	76.8	> 1000	> 300	> 10000	> 1000	> 10000	> 1000	146	> 1000	> 1000
HSC-4 (Oral Cavity Carcinoma)	> 3000	> 10000	> 10000	> 10000	7280	> 10000	> 10000	11.2	> 1000	> 2000	> 1000	> 10000	> 3000	> 1	> 10000	> 10000	> 10000	> 3000	205	> 1000	> 300	> 10000	> 1000	> 10000	> 1000	> 1000	> 1000	> 1000
NUGC-3 (Gastric Carcinoma)	729	5310	> 10000	> 10000	6490	> 10000	> 10000	5.05	> 1000	> 2000	> 1000	> 10000	> 3000	> 1	> 10000	3750	> 10000	> 3000	193	> 1000	> 300	> 10000	> 1000	> 10000	> 1000	128	592	> 1000
OSC-20 (Oral Cavity Carcinoma)	1220	> 10000	> 10000	> 10000	> 10000	–	> 10000	40.4	> 1000	> 2000	> 1000	> 10000	> 3000	> 1	> 10000	9680	> 10000	> 3000	458	> 1000	> 300	> 10000	> 1000	> 10000	> 1000	> 1000	> 1000	> 1000
OVCAR-4 (Ovarian Carcinoma)	> 3000	> 10000	> 10000	> 10000	6930	–	> 10000	> 300	> 1000	> 2000	> 1000	> 10000	> 3000	> 1	> 10000	> 10000	> 10000	> 3000	57.4	> 1000	> 300	> 10000	> 1000	> 10000	> 1000	> 1000	> 1000	> 1000
PWR-1E (Non-Cancerous)	525	> 10000	> 10000	1510	2820	> 10000	> 10000	13	827	371	343	8500	> 3000	> 1	> 10000	7810	> 10000	> 3000	28.1	> 1000	> 300	> 10000	> 1000	> 10000	> 1000	> 1000	> 1000	> 1000
SCC-15 (Oral Cavity Carcinoma)	> 3000	> 10000	> 10000	> 10000	> 10000	–	> 10000	66.1	> 1000	1360	> 1000	> 10000	> 3000	> 1	> 10000	2000	> 10000	> 3000	682	> 1000	> 300	> 10000	> 1000	> 10000	> 1000	> 1000	> 1000	> 1000
SU8686 (Pancreatic Carcinoma)	> 3000	> 10000	> 10000	> 10000	> 10000	–	> 10000	> 300	> 1000	> 2000	> 1000	> 10000	> 3000	> 1	> 10000	> 10000	> 10000	> 3000	489	> 1000	> 300	> 10000	> 1000	> 10000	> 1000	> 1000	> 1000	> 1000
TE-1 (Esophageal Squamous Cell Carcinoma)	2220	> 10000	> 10000	6090	> 10000	–	> 10000	157	> 1000	393	> 1000	> 10000	> 3000	> 1	> 10000	7850	> 10000	> 3000	131	> 1000	> 300	> 10000	> 1000	> 10000	> 1000	> 1000	> 1000	> 1000
VA-ES-BJ (Other Solid Carcinomas)	3000	> 10000	> 10000	4770	4580	–	> 10000	18.8	> 1000	> 2000	> 1000	> 10000	> 3000	> 1	> 10000	4500	> 10000	> 3000	118	> 1000	> 300	> 10000	> 1000	> 10000	> 1000	464	> 1000	> 1000
